These results are taken from patent publication US20260167619A2, “INDOLINE COMPOUNDS AND DERIVATIVES AS EGFR INHIBITORS” (BeOne Medicines I GmbH, priority 2020, published 2026).

Molecules are shown by their SMILES.

Assay [1] addresses EGFR(Dell9_T790M_C797S) (aa 669-1210, in house) (Homo sapiens, UniProt P00533, T790M/C797S, form not given). Put plainly: Biochemical EGFR inhibition assay (TR-FRET), Del19/T790M/C797S mutant. Conditions: ATP at Km, 15 min pre-incubation, 60 min reaction; read-out: Del_TM_CS (Km ATP) IC50. The protocol: (§1) Compounds were tested for inhibition of kinase activity against EGFR (aa668-1210, Invitrogen), EGFR(L858R_T790M_C797S) (aa695-end, Invitrogen) and EGFR(Dell9_T790M_C797S) (aa 669-1210, in house) in assays based on time-resolved fluorescence-resonance energy transfer (TR-FRET) methodology. Recombinant EGFR, EGFR(L858R_T790M_C797S) or EGFR(Dell9_T790M_C797S) was pre-incubated with the compounds at room temperature for 15 minutes in an assay buffer containing 50 mM HEPES pH7.5, 10 mM MgCl2, 2 mM DTT, 1 mM EGTA, 0.1% BSA, 0.01% Tween-20. The reactions were initiated by the addition of ATP (at the concentration of ATP Km) and substrate Biotin-Poly GT. After reaction at room temperature for 60 minutes, stop/detection solution was added. The stop/detection solution contained Eu^3+ cryptate-conjugated mouse monoclonal antibody (PT66) anti-phosphotyrosine and XL665-conjugated streptavidin in buffer containing 50 mM HEPES pH7.0, 800 mM KF, 20 mM EDTA, and 0.1% BSA. Plates were sealed and incubated at room temperature for 1 hour, and the TR-FRET signals (ratio of fluorescence emission at 665 nm over emission at 620 nm with excitation at 337 nm wavelength) were recorded on a PHERAstar FS plate reader (BMG Labtech). The residual enzyme activity in presence of increasing concentrations of compounds was calculated based on the ratio of fluorescence at 665 nm to that at 620 nm. The IC50 for each compound was derived from fitting the data to the four-parameter logistic equation by Dotmatics or Graphpad Prism software.
(§2) These biochemical EGFR enzyme form compound dose-response assays quantify the kinase activity via phosphorylation of a tagged poly-GT substrate. The results of the assay are provided as IC50 values.
Background: TR-FRET usually uses a lanthanide donor and a delayed reading to cut background.

Assay [2] concerns the target T1, EGFR(L858R_T790M_C797S) (aa695-end, Invitrogen) (Homo sapiens, UniProt P00533, C797S/L858R/T790M).
T1 construct: purchased Invitrogen
Put plainly: Biochemical EGFR inhibition assay (TR-FRET), L858R/T790M/C797S mutant. To be noted: ATP at Km, 15 min pre-incubation, 60 min reaction; read-out: LR_TM_CS (Km ATP) IC50. The protocol:
as §1, §2

Assay [3] concerns the target T2, EGFR (aa668-1210, Invitrogen) (Homo sapiens, UniProt P00533).
T2 construct: EGFR (aa668-1210, Invitrogen); purchased Invitrogen
As to the kind of experiment: Biochemical EGFR inhibition assay (TR-FRET), wild-type EGFR. To be noted: ATP at Km, 15 min pre-incubation, 60 min reaction; read-out: WT (Km ATP) IC50. The method, then:
as §1, §2

T2 sequence (P00533 668-1210): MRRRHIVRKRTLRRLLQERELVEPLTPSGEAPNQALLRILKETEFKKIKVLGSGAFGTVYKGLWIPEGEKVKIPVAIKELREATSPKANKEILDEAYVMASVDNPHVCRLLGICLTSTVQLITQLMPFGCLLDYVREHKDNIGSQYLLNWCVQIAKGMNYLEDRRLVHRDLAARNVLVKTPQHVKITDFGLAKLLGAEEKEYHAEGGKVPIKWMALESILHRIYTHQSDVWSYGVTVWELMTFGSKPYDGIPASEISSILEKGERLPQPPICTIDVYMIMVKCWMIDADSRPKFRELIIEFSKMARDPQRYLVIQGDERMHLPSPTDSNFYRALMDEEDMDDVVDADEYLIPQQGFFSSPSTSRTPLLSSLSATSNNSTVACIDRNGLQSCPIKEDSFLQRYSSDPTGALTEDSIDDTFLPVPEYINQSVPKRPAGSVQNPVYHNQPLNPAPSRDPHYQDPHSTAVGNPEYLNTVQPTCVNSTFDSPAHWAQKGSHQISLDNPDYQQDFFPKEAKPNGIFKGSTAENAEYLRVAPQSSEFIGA
Chain of EGFR(Dell9_T790M_C797S) (aa 669-1210, in house) (P00533 with tags, fused parts or gaps DEL746-750/T790M/C797S, form open): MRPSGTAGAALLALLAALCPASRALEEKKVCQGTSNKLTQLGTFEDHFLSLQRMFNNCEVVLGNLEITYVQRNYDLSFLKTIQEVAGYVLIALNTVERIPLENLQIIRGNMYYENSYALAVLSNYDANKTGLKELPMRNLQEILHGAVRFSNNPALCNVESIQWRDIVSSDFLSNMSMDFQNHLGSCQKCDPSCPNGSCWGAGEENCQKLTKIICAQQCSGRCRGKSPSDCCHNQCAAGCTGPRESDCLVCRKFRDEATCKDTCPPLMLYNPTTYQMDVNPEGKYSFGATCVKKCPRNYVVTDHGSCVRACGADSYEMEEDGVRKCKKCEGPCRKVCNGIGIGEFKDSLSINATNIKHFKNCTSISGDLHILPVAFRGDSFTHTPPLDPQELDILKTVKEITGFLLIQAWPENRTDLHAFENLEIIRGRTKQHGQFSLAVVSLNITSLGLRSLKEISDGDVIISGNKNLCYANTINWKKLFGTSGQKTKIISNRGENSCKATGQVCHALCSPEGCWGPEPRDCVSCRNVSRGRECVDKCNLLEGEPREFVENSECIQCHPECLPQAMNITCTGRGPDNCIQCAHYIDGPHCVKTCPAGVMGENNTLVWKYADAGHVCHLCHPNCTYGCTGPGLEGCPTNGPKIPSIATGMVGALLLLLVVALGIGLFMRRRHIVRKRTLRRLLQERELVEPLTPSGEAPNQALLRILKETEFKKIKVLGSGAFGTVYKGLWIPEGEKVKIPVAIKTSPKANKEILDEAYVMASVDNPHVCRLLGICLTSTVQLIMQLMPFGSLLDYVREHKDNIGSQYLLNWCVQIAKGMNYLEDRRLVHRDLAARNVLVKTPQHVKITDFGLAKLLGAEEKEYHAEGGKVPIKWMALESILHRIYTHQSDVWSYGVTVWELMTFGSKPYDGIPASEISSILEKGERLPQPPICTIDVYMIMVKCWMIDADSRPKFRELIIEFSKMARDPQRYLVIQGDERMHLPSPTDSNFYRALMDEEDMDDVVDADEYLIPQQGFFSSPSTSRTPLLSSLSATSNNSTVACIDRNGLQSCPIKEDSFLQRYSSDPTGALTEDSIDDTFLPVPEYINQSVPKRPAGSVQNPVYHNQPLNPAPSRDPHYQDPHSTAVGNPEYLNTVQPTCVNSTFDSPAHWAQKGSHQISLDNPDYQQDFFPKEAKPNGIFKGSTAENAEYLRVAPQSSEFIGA
T1 sequence (P00533 695-1210 T790M/C797S/L858R): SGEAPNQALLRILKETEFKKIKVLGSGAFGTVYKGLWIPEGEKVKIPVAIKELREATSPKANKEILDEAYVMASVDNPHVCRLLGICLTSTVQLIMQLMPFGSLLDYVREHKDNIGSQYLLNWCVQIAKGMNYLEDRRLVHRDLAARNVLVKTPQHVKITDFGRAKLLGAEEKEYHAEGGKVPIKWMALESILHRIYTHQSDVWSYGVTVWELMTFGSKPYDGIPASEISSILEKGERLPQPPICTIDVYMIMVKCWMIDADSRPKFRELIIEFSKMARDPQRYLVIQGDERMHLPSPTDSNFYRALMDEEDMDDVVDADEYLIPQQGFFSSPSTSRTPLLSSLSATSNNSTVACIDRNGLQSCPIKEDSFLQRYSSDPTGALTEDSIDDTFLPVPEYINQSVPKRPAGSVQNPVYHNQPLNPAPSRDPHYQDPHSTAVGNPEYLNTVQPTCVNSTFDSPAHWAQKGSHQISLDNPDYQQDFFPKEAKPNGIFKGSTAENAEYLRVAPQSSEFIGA

As usually defined, the IC50 is the concentration needed to halve the response being measured. Consider `CN1CCN(C2CCN(c3ccc(Nc4nc(Nc5cccc6c5N(S(C)(=O)=O)CC6)c5cc[nH]c5n4)cn3)CC2)CC1` [Example 184, N2-(6-(4-(4-methylpiperazin-1-yl)piperidin-1-yl)pyridin-3-yl)-N4-(1-(methylsulfonyl)indolin-7-yl)-7H-pyrrolo[2,3-d]pyrimidine-2,4-diamine], for which the IC50 in assay [1] worked out at 2.5 nM; in assay [2], 1.7 nM; in assay [3] it was 427 nM.

On to `CCN1CCN(C2CCN(c3cc(F)c(Nc4ncc(Br)c(Nc5cccc6c5N(S(C)(=O)=O)CC6)n4)cc3F)CC2)CC1` [Example 185, 5-bromo-N2-(4-(4-(4-ethylpiperazin-1-yl)piperidin-1-yl)-2,5-difluorophenyl)-N4-(1-(methylsulfonyl)indolin-7-yl)pyrimidine-2,4-diamine], for which the IC50 in assay [1] came to 0.3 nM; in assay [2] it was 0.3 nM; in assay [3], 1.5 nM.

Turning to `COc1cc(N2CCC(N3CCN(C)C(=O)C3)CC2)ccc1Nc1nc(Nc2cccc3c2N(S(C)(=O)=O)CC3)c2cc[nH]c2n1` [Example 186, 4-(1-(3-methoxy-4-((4-((1-(methylsulfonyl)indolin-7-yl)amino)-7H-pyrrolo[2,3-d]pyrimidin-2-yl)amino)phenyl)piperidin-4-yl)-1-methylpiperazin-2-one], the IC50 was 4.9 nM in assay [1], 1.5 nM in assay [2] and 140 nM in assay [3].

As for `COc1cc(N2CCC(N3CCN(C)CC3)CC2)ccc1Nc1ncc(Cl)c(Nc2cccc3c2N(S(C)(=O)=O)CC32CC2)n1` [Example 187, 5-chloro-N2-(2-methoxy-4-(4-(4-methylpiperazin-1-yl)piperidin-1-yl)phenyl)-N4-(1′-(methylsulfonyl)spiro[cyclopropane-1,3′-indolin]-7′-yl)pyrimidine-2,4-diamine], the IC50 in assay [1] came to 0.3 nM; in assay [2], 0.3 nM; in assay [3], 0.8 nM.

With `COc1cc(N2CCC(N3CCN(C)CC3)CC2)c(C)cc1Nc1ncc(Cl)c(Nc2cccc3c2N(S(C)(=O)=O)CC32CC2)n1` [Example 188, 5-chloro-N2-(2-methoxy-5-methyl-4-(4-(4-methylpiperazin-1-yl)piperidin-1-yl)phenyl)-N4-(1′-(methylsulfonyl)spiro[cyclopropane-1,3′-indolin]-7′-yl)pyrimidine-2,4-diamine], the IC50 turned out to be 0.7 nM in assay [1], 0.3 nM in assay [2] and 0.5 nM in assay [3].

Turning to `COc1cc(N2CCC(N3CCN(C)C4(CC4)C3)CC2)ccc1Nc1nc(Nc2cccc3c2N(S(C)(=O)=O)CC3)c2cc[nH]c2n1` [Example 189, N2-(2-methoxy-4-(4-(4-methyl-4,7-diazaspiro[2.5]octan-7-yl)piperidin-1-yl)phenyl)-N4-(1-(methylsulfonyl)indolin-7-yl)-7H-pyrrolo[2,3-d]pyrimidine-2,4-diamine], the IC50 was found to be 1.2 nM in assay [1], 0.9 nM in assay [2] and 35.3 nM in assay [3].

`COc1cc(N2CCC(N3CCN(C)CC3)CC2)ncc1Nc1nc(Nc2cccc3c2N(S(C)(=O)=O)CC3)c2cc[nH]c2n1` [Example 190, N2-(4-methoxy-6-(4-(4-methylpiperazin-1-yl)piperidin-1-yl)pyridin-3-yl)-N4-(1-(methylsulfonyl)indolin-7-yl)-7H-pyrrolo[2,3-d]pyrimidine-2,4-diamine]: the half-maximal inhibitory concentration (IC50) in assay [1] came to 5.6 nM; in assay [2] it was 3.8 nM; in assay [3], 883 nM.

Take `COc1cc(N2CCC(N3CCN(C)CC3=O)CC2)ccc1Nc1nc(Nc2cccc3c2N(S(C)(=O)=O)CC3)c2cc[nH]c2n1` [Example 191, 1-(1-(3-methoxy-4-((4-((1-(methylsulfonyl)indolin-7-yl)amino)-7H-pyrrolo[2,3-d]pyrimidin-2-yl)amino)phenyl)piperidin-4-yl)-4-methylpiperazin-2-one]: the IC50 in assay [1] was 1.9 nM; in assay [2], 0.6 nM; in assay [3], 31.6 nM.
